Test results published in ChEMBL document CHEMBL5058643, “Data for DCP probe BI-2081” (2022).
Activity calls are given as the source filed them. No cut-off for these calls is given here.

Legend:
[1] = target: 5-hydroxytryptamine receptor 1B (Homo sapiens) (UniProt P28222); assay: 5HT1B(H) Eurofins SafetyScreen44 (BI); details: filed as antagonist, Compound concentration 10.0 uM
[2] = target: Endothelin-1 receptor (Homo sapiens) (UniProt P25101); assay: ETA/H Eurofins SafetyScreen44 (BI); details: Compound concentration 10.0 uM
[3] = target: Glucocorticoid receptor (Homo sapiens) (UniProt P04150); assay: GCORTICOID/H Eurofins SafetyScreen44 (BI); details: Compound concentration 10.0 uM
[4] = target: Histamine H1 receptor (Homo sapiens) (UniProt P35367); assay: H1/PYRIL/HS Eurofins SafetyScreen44 (BI); details: Compound concentration 10.0 uM
[5] = target: Histamine H2 receptor (Homo sapiens) (UniProt P25021); assay: H2/APT/HS Eurofins SafetyScreen44 (BI); details: filed as antagonist, Compound concentration 10.0 uM
[6] = target: Mu-type opioid receptor (Homo sapiens) (UniProt P35372); assay: MU/H Eurofins SafetyScreen44 (BI); details: Compound concentration 10.0 uM
[7] = target: Muscarinic acetylcholine receptor M4 (Homo sapiens) (UniProt P08173); details: Compound concentration 10.0 uM
[8] = target: Muscarinic acetylcholine receptor M3 (Homo sapiens, UniProt P20309); assay: GPCRScan assay: inhibition of M3; design: radioligand conc. used [nm] 0.3 – 1.0, parental cells stable CHO
[9] = target: Free fatty acid receptor 1 (Homo sapiens, UniProt O14842); assay: FFAR1 biochemical assay
[10] = target: Gastrin/cholecystokinin type B receptor (Homo sapiens) (UniProt P32239); assay: CCKB/H Eurofins SafetyScreen44 (BI); details: Compound concentration 10.0 uM
[11] = target: Sodium-dependent serotonin transporter (Homo sapiens) (UniProt P31645); assay: 5HTTRANS/HU Eurofins SafetyScreen44 (BI); details: Compound concentration 10.0 uM
[12] = target: Adenosine receptor A2a (Homo sapiens) (UniProt P29274); assay: A2A/HU Eurofins SafetyScreen44 (BI); details: Compound concentration 10.0 uM
[13] = target: T1, Alpha-1A adrenergic receptor (Homo sapiens) (UniProt P35348); assay: ALPHA1A/R Eurofins SafetyScreen44 (BI); details: Rattus norvegicus; Compound concentration 10.0 uM
T1 sequence (whole entry): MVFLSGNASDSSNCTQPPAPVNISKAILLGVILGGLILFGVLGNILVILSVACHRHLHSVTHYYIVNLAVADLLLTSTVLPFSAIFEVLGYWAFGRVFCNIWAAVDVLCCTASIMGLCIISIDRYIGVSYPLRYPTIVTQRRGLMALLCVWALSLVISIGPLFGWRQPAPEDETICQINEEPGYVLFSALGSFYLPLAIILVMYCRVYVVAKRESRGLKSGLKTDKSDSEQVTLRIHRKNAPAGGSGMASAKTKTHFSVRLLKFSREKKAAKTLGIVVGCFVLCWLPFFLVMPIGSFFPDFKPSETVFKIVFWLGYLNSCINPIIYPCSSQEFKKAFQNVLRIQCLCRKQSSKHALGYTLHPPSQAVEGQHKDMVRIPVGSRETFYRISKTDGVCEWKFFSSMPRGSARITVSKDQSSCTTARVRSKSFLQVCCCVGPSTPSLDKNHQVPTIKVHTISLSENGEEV

[14] = target: T2, Alpha-1D adrenergic receptor (Homo sapiens) (UniProt P25100); assay: ALPHA1D/H Eurofins SafetyScreen44 (BI); details: Compound concentration 10.0 uM
T2 sequence (whole entry): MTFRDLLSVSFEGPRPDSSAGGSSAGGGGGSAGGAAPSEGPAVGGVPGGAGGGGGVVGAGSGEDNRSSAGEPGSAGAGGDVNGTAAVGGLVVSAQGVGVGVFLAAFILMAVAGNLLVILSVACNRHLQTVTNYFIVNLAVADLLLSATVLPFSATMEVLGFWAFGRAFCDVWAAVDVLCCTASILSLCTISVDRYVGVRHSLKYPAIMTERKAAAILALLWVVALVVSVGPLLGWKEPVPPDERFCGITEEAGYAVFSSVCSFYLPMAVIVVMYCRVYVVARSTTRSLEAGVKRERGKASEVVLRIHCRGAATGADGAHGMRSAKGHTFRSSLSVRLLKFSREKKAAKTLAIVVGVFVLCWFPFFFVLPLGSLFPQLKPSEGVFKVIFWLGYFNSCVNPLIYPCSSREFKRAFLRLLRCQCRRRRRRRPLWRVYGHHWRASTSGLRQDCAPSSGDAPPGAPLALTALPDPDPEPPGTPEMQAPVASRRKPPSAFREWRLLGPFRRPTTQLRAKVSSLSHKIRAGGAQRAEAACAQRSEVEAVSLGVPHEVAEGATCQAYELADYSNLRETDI

[15] = target: Voltage-dependent N-type calcium channel subunit alpha-1B (Rattus norvegicus) (UniProt Q02294); assay: CA+/N/RA Eurofins SafetyScreen44 (BI); details: Compound concentration 10.0 uM
[16] = target: Cysteinyl leukotriene receptor 1 (Homo sapiens) (UniProt Q9Y271); assay: CYSLT1_HS Eurofins SafetyScreen44 (BI); details: Compound concentration 10.0 uM
[17] = target: Sodium-dependent dopamine transporter (Homo sapiens) (UniProt Q01959); assay: DATRANS/H Eurofins SafetyScreen44 (BI); details: Compound concentration 10.0 uM
[18] = target: Glucocorticoid receptor (Homo sapiens) (UniProt P04150); assay: GLUCOCORTICO Eurofins SafetyScreen44 (BI); details: Compound concentration 10.0 uM
[19] = target: hERG (KCNH2) (Homo sapiens, UniProt Q12809); assay: K+/HERG Eurofins SafetyScreen44 (BI); details: compound concentration 10 uM, read-out: % Ctrl
[20] = target: Glutamate receptor ionotropic, kainate 1 (Rattus norvegicus) (UniProt P22756); assay: KAINATE/R Eurofins SafetyScreen44 (BI); details: Compound concentration 10.0 uM
[21] = target: T3, Muscarinic acetylcholine receptor M2 (Homo sapiens) (UniProt P08172); assay: M2/HU Eurofins SafetyScreen44 (BI); details: Compound concentration 10.0 uM
T3 sequence (whole entry): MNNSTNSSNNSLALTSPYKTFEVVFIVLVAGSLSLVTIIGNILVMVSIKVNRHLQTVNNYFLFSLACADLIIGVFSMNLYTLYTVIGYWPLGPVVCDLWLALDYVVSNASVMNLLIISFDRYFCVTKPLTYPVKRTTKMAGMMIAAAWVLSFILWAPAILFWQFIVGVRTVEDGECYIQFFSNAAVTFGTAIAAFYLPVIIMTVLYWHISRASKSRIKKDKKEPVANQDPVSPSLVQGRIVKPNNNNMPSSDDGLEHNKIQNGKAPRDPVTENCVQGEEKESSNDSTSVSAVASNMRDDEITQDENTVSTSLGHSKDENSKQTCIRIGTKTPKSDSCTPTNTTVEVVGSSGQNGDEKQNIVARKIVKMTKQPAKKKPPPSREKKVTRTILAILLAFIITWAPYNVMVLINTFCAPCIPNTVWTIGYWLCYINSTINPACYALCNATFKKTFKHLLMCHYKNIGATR

[22] = target: Acetylcholine receptor subunit alpha (Homo sapiens) (UniProt P02708); assay: NACH/H Eurofins SafetyScreen44 (BI); details: Compound concentration 10.0 uM
[23] = target: Sigma non-opioid intracellular receptor 1 (Homo sapiens) (UniProt Q99720); assay: SIGMA1/HU Eurofins SafetyScreen44 (BI); details: Compound concentration 10.0 uM
[24] = target: Androgen receptor (Rattus norvegicus) (UniProt P15207); assay: TESTOST/RA Eurofins SafetyScreen44 (BI); details: Compound concentration 10.0 uM
Androgen receptor (Rattus norvegicus), sequence (P15207 whole entry S389L): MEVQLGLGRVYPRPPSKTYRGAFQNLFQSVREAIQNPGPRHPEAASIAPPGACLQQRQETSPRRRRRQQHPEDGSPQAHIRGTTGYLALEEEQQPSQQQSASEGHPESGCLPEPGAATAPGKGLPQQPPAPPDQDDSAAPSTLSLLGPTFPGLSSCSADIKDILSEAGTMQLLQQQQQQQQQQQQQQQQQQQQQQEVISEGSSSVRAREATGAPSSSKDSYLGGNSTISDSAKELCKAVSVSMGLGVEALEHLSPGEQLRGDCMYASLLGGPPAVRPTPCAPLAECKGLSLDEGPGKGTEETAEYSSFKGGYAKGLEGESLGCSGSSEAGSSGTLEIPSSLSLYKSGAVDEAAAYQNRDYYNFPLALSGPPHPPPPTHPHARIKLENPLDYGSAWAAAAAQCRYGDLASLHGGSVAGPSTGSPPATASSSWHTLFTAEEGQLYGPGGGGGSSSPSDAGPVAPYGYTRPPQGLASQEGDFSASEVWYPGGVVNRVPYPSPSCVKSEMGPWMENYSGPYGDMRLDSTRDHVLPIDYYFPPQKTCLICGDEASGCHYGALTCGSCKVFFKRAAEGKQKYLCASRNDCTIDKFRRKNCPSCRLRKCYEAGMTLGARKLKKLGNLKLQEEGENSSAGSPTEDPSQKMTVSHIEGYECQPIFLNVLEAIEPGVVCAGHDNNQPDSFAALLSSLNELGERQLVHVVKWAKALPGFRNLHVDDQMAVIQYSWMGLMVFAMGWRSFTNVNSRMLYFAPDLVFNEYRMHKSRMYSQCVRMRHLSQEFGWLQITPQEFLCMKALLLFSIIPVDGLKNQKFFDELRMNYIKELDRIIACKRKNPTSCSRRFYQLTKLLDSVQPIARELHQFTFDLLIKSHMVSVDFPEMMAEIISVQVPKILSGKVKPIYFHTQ

Muscarinic acetylcholine receptor M3, sequence (P20309 whole entry): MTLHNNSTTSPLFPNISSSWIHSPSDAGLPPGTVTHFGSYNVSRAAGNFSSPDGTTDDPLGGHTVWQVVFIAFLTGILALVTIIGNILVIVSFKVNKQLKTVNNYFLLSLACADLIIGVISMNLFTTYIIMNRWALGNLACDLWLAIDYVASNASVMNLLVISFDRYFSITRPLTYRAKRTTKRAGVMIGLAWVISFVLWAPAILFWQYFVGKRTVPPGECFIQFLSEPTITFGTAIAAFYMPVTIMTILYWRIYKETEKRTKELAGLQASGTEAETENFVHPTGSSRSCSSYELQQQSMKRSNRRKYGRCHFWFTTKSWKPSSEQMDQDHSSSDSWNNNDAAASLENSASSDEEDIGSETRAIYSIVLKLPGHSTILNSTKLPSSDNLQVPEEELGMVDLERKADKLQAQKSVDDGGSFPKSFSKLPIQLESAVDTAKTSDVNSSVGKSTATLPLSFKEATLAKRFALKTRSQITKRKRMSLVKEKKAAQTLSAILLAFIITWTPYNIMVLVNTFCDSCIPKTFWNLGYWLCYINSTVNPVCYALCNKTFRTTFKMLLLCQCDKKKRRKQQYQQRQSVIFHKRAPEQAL
Muscarinic acetylcholine receptor M4 (Homo sapiens), sequence (P08173 whole entry): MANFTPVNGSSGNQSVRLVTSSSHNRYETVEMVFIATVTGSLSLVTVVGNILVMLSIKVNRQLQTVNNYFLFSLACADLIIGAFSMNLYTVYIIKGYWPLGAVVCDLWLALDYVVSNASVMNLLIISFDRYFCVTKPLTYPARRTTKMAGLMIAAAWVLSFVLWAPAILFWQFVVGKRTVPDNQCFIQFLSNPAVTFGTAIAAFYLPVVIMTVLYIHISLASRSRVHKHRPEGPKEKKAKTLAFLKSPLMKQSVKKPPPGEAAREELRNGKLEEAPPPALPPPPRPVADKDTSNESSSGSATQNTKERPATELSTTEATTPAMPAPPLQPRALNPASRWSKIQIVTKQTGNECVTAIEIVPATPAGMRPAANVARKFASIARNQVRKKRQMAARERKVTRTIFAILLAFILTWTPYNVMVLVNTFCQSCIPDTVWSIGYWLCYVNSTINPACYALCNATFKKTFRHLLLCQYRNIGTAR
Glucocorticoid receptor (Homo sapiens), sequence (P04150 whole entry): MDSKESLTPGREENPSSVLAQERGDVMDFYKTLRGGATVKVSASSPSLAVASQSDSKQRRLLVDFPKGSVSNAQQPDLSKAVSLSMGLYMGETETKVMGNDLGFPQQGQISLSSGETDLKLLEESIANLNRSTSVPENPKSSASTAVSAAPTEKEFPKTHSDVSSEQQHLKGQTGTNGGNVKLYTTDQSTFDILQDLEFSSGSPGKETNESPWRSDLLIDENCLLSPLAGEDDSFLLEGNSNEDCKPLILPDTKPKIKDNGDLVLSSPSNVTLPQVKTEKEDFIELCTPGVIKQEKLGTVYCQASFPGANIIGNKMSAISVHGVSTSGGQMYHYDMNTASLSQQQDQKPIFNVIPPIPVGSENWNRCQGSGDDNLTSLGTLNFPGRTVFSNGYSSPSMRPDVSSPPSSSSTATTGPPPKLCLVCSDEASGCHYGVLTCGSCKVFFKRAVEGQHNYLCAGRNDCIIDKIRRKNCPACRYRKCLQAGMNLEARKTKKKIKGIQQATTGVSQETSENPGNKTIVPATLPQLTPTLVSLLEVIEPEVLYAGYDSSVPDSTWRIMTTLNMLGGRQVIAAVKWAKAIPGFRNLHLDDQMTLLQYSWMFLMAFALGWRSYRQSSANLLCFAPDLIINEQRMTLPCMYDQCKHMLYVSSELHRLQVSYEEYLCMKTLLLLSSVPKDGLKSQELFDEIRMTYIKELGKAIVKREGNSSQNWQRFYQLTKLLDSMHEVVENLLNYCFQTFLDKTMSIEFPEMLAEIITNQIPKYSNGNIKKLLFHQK
Endothelin-1 receptor (Homo sapiens), sequence (P25101 whole entry): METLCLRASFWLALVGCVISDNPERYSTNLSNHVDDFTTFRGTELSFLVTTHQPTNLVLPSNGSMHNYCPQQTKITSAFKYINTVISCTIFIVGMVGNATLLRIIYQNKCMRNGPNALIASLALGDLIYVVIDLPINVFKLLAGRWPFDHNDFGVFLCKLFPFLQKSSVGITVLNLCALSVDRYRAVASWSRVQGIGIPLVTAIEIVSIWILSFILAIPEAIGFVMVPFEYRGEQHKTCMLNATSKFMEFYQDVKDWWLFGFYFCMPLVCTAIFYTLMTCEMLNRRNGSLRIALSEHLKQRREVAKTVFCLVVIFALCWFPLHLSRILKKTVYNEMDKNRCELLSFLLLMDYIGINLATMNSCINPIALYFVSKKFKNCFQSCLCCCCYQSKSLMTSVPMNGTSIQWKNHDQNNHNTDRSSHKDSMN
Adenosine receptor A2a (Homo sapiens), sequence (P29274 whole entry): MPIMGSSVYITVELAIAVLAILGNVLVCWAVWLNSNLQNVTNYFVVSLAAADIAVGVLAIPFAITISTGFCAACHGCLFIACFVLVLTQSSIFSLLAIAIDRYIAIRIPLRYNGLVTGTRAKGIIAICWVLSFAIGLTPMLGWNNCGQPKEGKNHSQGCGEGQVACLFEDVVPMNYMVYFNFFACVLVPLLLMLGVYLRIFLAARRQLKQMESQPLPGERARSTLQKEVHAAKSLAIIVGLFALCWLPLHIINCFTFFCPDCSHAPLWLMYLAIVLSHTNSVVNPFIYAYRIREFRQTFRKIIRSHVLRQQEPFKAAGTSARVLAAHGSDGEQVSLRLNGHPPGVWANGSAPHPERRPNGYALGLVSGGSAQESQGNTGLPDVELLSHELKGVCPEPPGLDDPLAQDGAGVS
Histamine H2 receptor (Homo sapiens), sequence (P25021 whole entry): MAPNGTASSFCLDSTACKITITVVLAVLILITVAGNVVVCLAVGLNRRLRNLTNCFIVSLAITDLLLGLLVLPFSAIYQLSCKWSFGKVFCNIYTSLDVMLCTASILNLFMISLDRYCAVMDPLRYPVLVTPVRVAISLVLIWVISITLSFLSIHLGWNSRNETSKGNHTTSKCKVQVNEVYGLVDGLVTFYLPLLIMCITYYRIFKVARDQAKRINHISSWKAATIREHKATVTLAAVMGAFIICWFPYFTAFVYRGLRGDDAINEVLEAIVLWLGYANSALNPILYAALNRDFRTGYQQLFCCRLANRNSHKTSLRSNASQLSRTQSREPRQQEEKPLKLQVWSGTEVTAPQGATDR
Sigma non-opioid intracellular receptor 1 (Homo sapiens), sequence (Q99720 whole entry): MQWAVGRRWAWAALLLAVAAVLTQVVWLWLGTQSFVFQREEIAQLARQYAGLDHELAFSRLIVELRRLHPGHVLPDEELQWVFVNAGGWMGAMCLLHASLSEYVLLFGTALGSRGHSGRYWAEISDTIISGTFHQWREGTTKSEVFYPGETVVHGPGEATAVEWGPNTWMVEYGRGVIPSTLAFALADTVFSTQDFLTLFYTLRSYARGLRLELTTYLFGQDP
Histamine H1 receptor (Homo sapiens), sequence (P35367 whole entry): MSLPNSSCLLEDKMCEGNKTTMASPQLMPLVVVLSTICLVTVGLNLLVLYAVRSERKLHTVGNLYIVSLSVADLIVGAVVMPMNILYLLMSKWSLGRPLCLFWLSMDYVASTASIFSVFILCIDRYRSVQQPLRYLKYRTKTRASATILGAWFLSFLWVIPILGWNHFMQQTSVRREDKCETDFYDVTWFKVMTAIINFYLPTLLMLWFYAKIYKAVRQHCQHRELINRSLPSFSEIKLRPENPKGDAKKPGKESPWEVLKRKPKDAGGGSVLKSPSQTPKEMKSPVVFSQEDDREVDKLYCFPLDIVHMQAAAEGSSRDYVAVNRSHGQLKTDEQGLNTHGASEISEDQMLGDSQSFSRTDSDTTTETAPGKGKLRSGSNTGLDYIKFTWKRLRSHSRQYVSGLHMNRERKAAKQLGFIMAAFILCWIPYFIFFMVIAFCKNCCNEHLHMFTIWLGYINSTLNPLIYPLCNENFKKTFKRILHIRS
Free fatty acid receptor 1, sequence (O14842 whole entry): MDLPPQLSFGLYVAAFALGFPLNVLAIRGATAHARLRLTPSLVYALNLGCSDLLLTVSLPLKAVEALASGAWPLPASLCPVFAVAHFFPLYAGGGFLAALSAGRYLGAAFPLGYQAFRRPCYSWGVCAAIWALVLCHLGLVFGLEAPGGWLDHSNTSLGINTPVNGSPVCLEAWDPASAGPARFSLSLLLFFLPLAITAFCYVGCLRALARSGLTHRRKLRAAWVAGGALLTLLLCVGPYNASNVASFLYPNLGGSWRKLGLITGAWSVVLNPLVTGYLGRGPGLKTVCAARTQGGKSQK

`COCCCS(=O)(=O)c1cc(C)c(-c2ccc(F)c3c2CC[C@H]3Oc2ccc3c(c2)OC[C@H]3CC(=O)O)c(C)c1` showed a residual activity [1] of 97%, a residual activity [2] of 56% and a residual activity [3] of 43%. For the same compound, the residual activity [4] was 87%, the residual activity [5] was 93% and the residual activity [6] was 75%. The inhibition [7] was -8.43%.
With `Cc1cc(OCCC(C)(C)O)cc(C)c1-c1ccc(F)c2c1CC[C@H]2Oc1ccc2c(c1)OC[C@H]2CC(=O)O` the Ki [8] was over 10 µM, the pKi [8] was under 5 and the Ki [9] was 0.023 µM (active). For the same compound, the residual activity [10] was 96%, the residual activity [11] was 106% and the residual activity [12] was 125%. For the same compound, the residual activity [13] was 73%, the residual activity [14] was 85% and the residual activity [15] was 113%. For the same compound, the residual activity [16] was 31%, the residual activity [17] was 68% and the residual activity [18] was 67%. For the same compound, the activity at 10 µM [19] was 80% (not active), the residual activity [20] was 117% and the residual activity [21] was 92%. It also gave a residual activity [22] of 115%, a residual activity [23] of 91% and a residual activity [24] of 75%.
